Experimental data published in patent US12570612B2, “Substituted nitrogen heterocyclic compound and anesthetic effect thereof” (priority 2019, dated 2026).
Like-named read-outs stand apart in the source and are kept apart here.

What was measured:
Sprague-Dawley rats [1] = test: Pharmacological effect and adverse reactions under the equivalent dose (2ED50), Group C compounds; type: in vivo; conditions: for Righting reflex duration / Sedation duration / Onset time: 2ED50, tail vein, rats, n=8; for Adverse reaction: Convulsions / Adverse reaction: Cough, broken-winded / Adverse reaction: Euphoria / Adverse reaction: Red urine / Adverse reaction: Slower breathing, Tetany convulsion / Adverse reaction: Systemic stiffness, Convulsions, Opisthotonus / Adverse reaction: Tongue stretching / Adverse reaction: Tremor / Adverse reaction: the four limbs rigidity: equivalent dose (2ED50), number of rats of n = 8
Text: Evaluation index: onset time: from the completion of drug injection to the disappearance of forepaw righting reflex in rats; Duration of anesthesia: the time from the disappearance of rat forepaw righting reflex to the recovery of rat forepaw righting reflex; Recovery time of anesthesia: the time from the […] to complete recovery;

Sprague-Dawley rats [2] = test: animal or person; type: in vivo; conditions: rats; for ED50: LORR, up and down method, tail vein, class symbols
Text: Evaluating indicator: The end point of anesthesia: LORR was used as the end point of anesthesia; General anesthesia effect: the disappearance of forepaw righting reflex in rats lasting for 30 seconds is taken as the index of general anesthesia effect; Anesthesia recovery index: the recovery of rat forepaw righting reflex was used as the index of anesthesia recovery.

SD rats = conditions: for After the infusion is stopped: Righting reflex recovery time / Recovery time after stopping infusion: after 1 hour continuous infusion at 2 times the MIR; for After the infusion is stopped: Righting reflex recovery time / Recovery time after stopping infusion / Sedation onset time: SD rats; for Types and incidence of adverse reactions: Red urine / Types and incidence of adverse reactions: Tongue stretching / Types and incidence of adverse reactions: Tremor: continuous infusion 2 x MIR 1 hour, rats affected/rats; for Sedation onset time: continuous tail vein infusion at 2 times the MIR
Description: Experimental Methods: Adult male SD rats with body weight ranging from 250 g to 350 g were selected for continuous infusion test.
Evaluation indexes: the time from the beginning of continuous infusion to the […] of sedation in rats; the time from the cessation of infusion to the restoration of the forepaw turning reflex after 1 hour of continuous infusion; the time from the cessation of infusion to the complete restoration of rats after 1 hour of continuous infusion.

Sprague-Dawley rats [3] = type: in vivo; conditions: tail vein
[4] = Rattus norvegicus, read-out: ED50

Row | SMILES | Righting reflex duration (Sprague-Dawley rats [1]) | Sedation duration (Sprague-Dawley rats [1]) | Onset time (Sprague-Dawley rats [1]; unit s) | Adverse reaction: Convulsions (Sprague-Dawley rats [1]) | Adverse reaction: Cough, broken-winded (Sprague-Dawley rats [1]) | Adverse reaction: Euphoria (Sprague-Dawley rats [1]) | Adverse reaction: Red urine (Sprague-Dawley rats [1]) | Adverse reaction: Slower breathing, Tetany convulsion (Sprague-Dawley rats [1]) | Adverse reaction: Systemic stiffness, Convulsions, Opisthotonus (Sprague-Dawley rats [1]) | Adverse reaction: Tongue stretching (Sprague-Dawley rats [1]) | Adverse reaction: Tremor (Sprague-Dawley rats [1]) | Adverse reaction: the four limbs rigidity (Sprague-Dawley rats [1]) | ED50 (Sprague-Dawley rats [2]; [4]) | Approximate therapeutic index (Sprague-Dawley rats [2]) | Minimal lethal dose (Sprague-Dawley rats [3]) | other results
1 | CCOCC(=O)c1cncn1[C@H](C)c1ccccc1 [Compound C34] | 2.26 ± 0.81 min | 4.89 ± 0.98 min | <30 s | 0 | 0 | 1 | 8 | 0 | 6 | 1 | 0 | 0 | 2 to 10 mg/kg | >2.6 | >12.8 mg/kg | After the infusion is stopped: Righting reflex recovery time (SD rats): 15 to 20 min; Recovery time after stopping infusion (SD rats): 22 to 28 min; Types and incidence of adverse reactions: Red urine (SD rats): 6/6; Types and incidence of adverse reactions: Tongue stretching (SD rats): Tongue stretching(4/6); Types and incidence of adverse reactions: Tremor (SD rats): 2/6; Sedation onset time (SD rats): <5 min
2 | C[C@H](c1ccccc1)n1cnc(F)c1C(=O)COCCC1CCC1 [Compound C74] | 1.37 ± 0.63 min | 5.68 ± 1.10 min | – | 0 | 0 | 0 | 8 | 0 | 0 | 0 | 1 | 0 | 0.04 to 0.5 mg/kg | >42.9 | >6.0 mg/kg | Onset time (Sprague-Dawley rats [1]; unit min): <60 s; After the infusion is stopped: Righting reflex recovery time (SD rats): 13 to 18 min; Recovery time after stopping infusion (SD rats): 18 to 24 min; Types and incidence of adverse reactions: Red urine (SD rats): 6/6; Types and incidence of adverse reactions: Tongue stretching (SD rats): Tongue stretching(4/6); Types and incidence of adverse reactions: Tremor (SD rats): 4/6; Sedation onset time (SD rats): <5 min
3 | C[C@H](c1ccccc1)n1cnc(F)c1C(=O)COCC1CC1 [Compound C76] | 1.72 ± 0.61 min | 4.32 ± 0.96 min | <30 s | 0 | 0 | 0 | 8 | 0 | 0 | 0 | 1 | 1 | – | >21.9 | >15.6 mg/kg | ED50 (Sprague-Dawley rats [2]): ++ (++ means that the measured ED50 is in the range of 0.50-1.00 mg/kg (excluding 0.50 mg/kg, including 1.00 mg/kg))
4 | CC(=O)COCC(=O)c1cncn1[C@H](C)c1ccccc1 [Compound C51] | 2.89 ± 0.68 min | 4.62 ± 1.02 min | <30 s | 0 | 0 | 0 | 8 | 0 | 0 | 0 | 2 | 0 | 1 to 2 mg/kg | >8.3 | >12.5 mg/kg | –
5 | CCC(CC)OCC(=O)c1cncn1[C@H](C)c1ccccc1 [Compound C36] | 4.02 ± 1.09 min | 15.57 ± 4.94 min | <30 s | 0 | 0 | 0 | 8 | 0 | 0 | 0 | 0 | 3 | 2 to 10 mg/kg | >3.0 | >15.2 mg/kg | –
6 | CC(=O)COCC(=O)c1cc(F)nn1[C@H](C)c1ccccc1 [Compound C16] | 2.26 ± 0.81 min | 4.89 ± 0.98 min | <30 s | 0 | 0 | 0 | 8 | 0 | 0 | 1 | 2 | 4 | 2 to 10 mg/kg | – | >17.0 mg/kg | –
7 | C[C@H](c1ccccc1)n1cnc(F)c1C(=O)COCC1CCC1 [Compound C70] | 1.35 ± 0.61 min | 5.30 ± 1.14 min | <30 s | 0 | 0 | 4 | 8 | 0 | 0 | 0 | 0 | 6 | – | >18.2 | >6.4 mg/kg | ED50 (Sprague-Dawley rats [2]): + (+ indicates that the measured ED50 is in the range of 0.04-0.50 mg/kg (including 0.04 and 0.50 mg/kg))
8 | COCC(=O)c1cncn1[C@H](C)c1ccccc1 [Compound C33] | 1.62 ± 0.85 min | 4.43 ± 0.92 min | <30 s | 0 | 0 | 0 | 8 | 0 | 0 | 0 | 1 | 0 | – | >2.8 | >14.2 mg/kg | –
9 | C[C@H](c1ccccc1)n1cncc1C(=O)COCC1CC1 [Compound C46] | 1.82 ± 0.64 min | 5.63 ± 1.52 min | <30 s | 0 | 0 | 0 | 8 | 0 | 0 | 1 | 1 | 0 | 2 to 10 mg/kg | >2.4 | >11.8 mg/kg | –
10 | C[C@H](c1ccccc1)n1cncc1C(=O)COCCC1CCC1 [Compound C40] | 3.76 ± 1.75 min | 10.48 ± 2.58 min | <30 s | 1 | 0 | 0 | 8 | 1 | 1 | 0 | 0 | 0 | 0.5 to 1 mg/kg | >13.8 | >8.3 mg/kg | After the infusion is stopped: Righting reflex recovery time (SD rats): 16 to 20 min; Recovery time after stopping infusion (SD rats): 27 to 35 min; Types and incidence of adverse reactions: Red urine (SD rats): 6/6; Types and incidence of adverse reactions: Tremor (SD rats): 2/6; Sedation onset time (SD rats): <5 min
11 | CCSCC(=O)c1ccnn1[C@H](C)c1ccccc1 [Compound C9, (R)-2-(ethylthio)-1-(1-(1-phenylethyl)-1H-pyrazol-5-yl)ethan-1-one] | 1.56 ± 0.89 min | 6.62 ± 0.72 min | <30 s | 0 | 0 | 0 | 8 | 0 | 0 | 0 | 0 | 0 | 2 to 10 mg/kg | >2.1 | >10.2 mg/kg | –
12 | CC#CCC(=O)c1cncn1[C@H](C)c1ccccc1 [Compound C57] | 1.89 ± 0.29 min | 6.12 ± 1.14 min | – | 0 | 0 | 0 | 8 | 0 | 0 | 2 | 1 | 0 | 2 to 10 mg/kg | >16.6 | >13.61 mg/kg | Onset time (Sprague-Dawley rats [1]; unit min): <60 s
